Measurements published in publication PMC5441580, “GPR40 partial agonist MK-2305 lower fasting glucose in the Goto Kakizaki rat via suppression of endogenous glucose production” (PLoS ONE, 2017).
“And” between values parts separate entries of the source, which are not always exact repeats. Identical values can stand only once.

Experiments:
[1] = biological target: T1, rat GPR120 (FFAR4) (Rattus norvegicus, UniProt Q2AC31); test: IP1 functional assay, HEK293 cells stably expressing rat GPR120; assay type: cell-based; details: individual experiments (raw data of Table 1)
T1 construct: expressed in transfected cells
T1 sequence (Q2AC31 1-361): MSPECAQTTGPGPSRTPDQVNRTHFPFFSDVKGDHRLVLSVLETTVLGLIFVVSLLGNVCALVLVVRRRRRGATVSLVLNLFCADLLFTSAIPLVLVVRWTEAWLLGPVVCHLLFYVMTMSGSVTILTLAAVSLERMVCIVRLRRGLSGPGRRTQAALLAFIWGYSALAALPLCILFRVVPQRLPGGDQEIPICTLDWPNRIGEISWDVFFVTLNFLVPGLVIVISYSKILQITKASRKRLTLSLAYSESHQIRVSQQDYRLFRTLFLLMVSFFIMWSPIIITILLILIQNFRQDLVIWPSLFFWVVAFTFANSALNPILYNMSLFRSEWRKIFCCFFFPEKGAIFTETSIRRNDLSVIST
Method: CHO Jump-IN cells stably expressing rat GPR40 or HEK293 Jump-IN cells stably expressing rat GPR120 were cultured in DMEM media supplemented with 10% dialyzed FBS, non-essential amino acids, penicillin/streptomycin, 10 μg/ml Blasticidin S HCL and 200 or 100 μg/ml Hygromycin B, respectively (Life Technologies). Cell stocks were maintained and grown in a sub-confluent state using standard cell culture procedures. The day before the experiment, the cells were harvested with non-enzymatic cell dissociation buffer and re-suspended in DMEM supplemented as described above at 0.15 million cells per ml. […] The seeded plates were incubated overnight at 37°C in a humidified environment.
On the day of the experiment, the growth media was removed from the assay plate by centrifugation using a BlueCatBio BlueWasher, protocol #21 “Light Dry” and 10 μl of IP1 stimulation buffer (prepared according to the Cisbio IP-one Tb HTRF kit) is added to each well. Test compounds were dissolved and serially diluted in DMSO as 200X the final assay concentration and 50 nl of the compound dilution was acoustically added to each well of the assay plates. The plates were then incubated for 60 minutes at room temperature and 10 μl of detection buffer (prepared according to the IP-one Tb HTRF kit) is added to each well of the assay plate. […] Maximal % activation and EC50 are then determined for each test compound.

[2] = test system: GK rats; test: OGTT with insulin co-measurement on Day 13 of chronic treatment, parallel set of animals; assay type: in vivo, rat; parameters: Change in plasma insulin from baseline during OGTT (delta insulin): unit not given here; details: for Change in plasma insulin from baseline during OGTT (delta insulin): day 13, individual animals
Method: On the day of the study, male GK rats were bled via tail snip, and blood glucose was measured via glucometer (OneTouch Ultra, Lifescan Inc., Milpitas, CA). Fed glucose was measured at 8 A.M. (lights on 7 A.M.– 7 P.M.) and used to select and sort animals into treatment groups (n = 8/ GK group, plus n = 6/WKY control group). Animals were then placed into clean cages, and food was removed. After a 5 hr fast, glucose was measured at time = -60 min, followed by administration of vehicle plus or minus compound via oral gavage (PO) at a dosing volume of 5 ml/kg. Dosages from 0.3–10 mg MK-2305 / kg body weight were tested. Both the GK and WKY control groups received vehicle (0.5% methylcellulose). Blood glucose was measured again (time = 0) immediately prior to a dextrose challenge of 1 g/kg at 10 ml/kg dose volume (Dextrose, Hospira Inc., Lake Forrest IL) and then again at 20, 40, 60, and 120 min after the glucose challenge. Insulin was co-measured to test the glucose-dependent secretory response to MK-2305 delivered acutely PO. To capture insulin secretion during the OGTT, blood was collected at t = -60, 0, 20, 40, 60 min post glucose challenge. […] Values of percent inhibition vs. vehicle for each treatment were generated from the AUC data. Maximally efficacious dose (MED) was defined as the minimum dosage generating a maximum inhibition of glucose excursion achieved with this compound in the OGTT assay.
In a parallel set of animals (n = 30) treated with standard diet or MK-2305 at 30 mg/kg diet, an OGTT with insulin co-measurement was performed on Day 13. On the day of OGTT, n = 10 vehicle animals and n = 10 MK-2305-treated animals were administered 0.5% methylcellulose PO at a dosing volume of 5 ml/kg. For an acute comparison, n = 10 vehicle animals were administered MK-2305 at 30 mg/kg PO. The procedure for an acute OGTT was identical to that described above.

In the case of O=C1NC(=O)C(C2CCOc3cc(Oc4ccc(C(F)(F)F)cc4Cl)ccc32)S1 (centres unmarked) [MK-2305], the “% Activation” value [1] is reported as -22% and -18% and -16% and 8%, the EC50 [1] is reported as > 10 µM and the “Change in plasma insulin from baseline during OGTT (delta insulin)” value (“Change in plasma insulin … (delta insulin)” below) ([2]; Acute, 30 mpk, Time 0, 30 mg/kg) is reported as 0.309 and 1.604 and 0.324 and 0.21 and 0.156 and 0.86 and 1.776 and 0.805 and -0.061 and 0.012. For the same molecule, the “Change in plasma insulin … (delta insulin)” value ([2]; Acute, 30 mpk, Time 20, 30 mg/kg) was 1.499 and 1.114 and 1.989 and 2.273 and 1.824 and -0.14 and 3.286 and 1.17 and 0.172 and 0.765, the “Change in plasma insulin … (delta insulin)” value ([2]; Acute, 30 mpk, Time 60, 30 mg/kg) was 0.099 and 0.177 and 0.004 and -0.004 and -0.413 and -0.187 and -0.251 and 0.259 and -0.133 and 0.416 and the “Change in plasma insulin … (delta insulin)” value ([2]; Acute, 30 mpk, Time -60) was 0. The “Change in plasma insulin … (delta insulin)” value ([2]; Chronic, 30 mkd, Time 0) was 0.06 and -0.177 and -0.627 and -0.109 and -0.564 and -0.273 and 0.845 and 0.077 and 0.103 and 0.198, the “Change in plasma insulin … (delta insulin)” value ([2]; Chronic, 30 mkd, Time 20) was 0.473 and 0.233 and 0.417 and 0.389 and 0.164 and 0.072 and 0 and 0.34 and 0.387 and 0.196 and the “Change in plasma insulin … (delta insulin)” value ([2]; Chronic, 30 mkd, Time 60) was -0.534 and -0.189 and -0.192 and 0.192 and -0.625 and -0.523 and -0.322 and -0.003 and -0.166 and -0.044. For the same molecule, the “Change in plasma insulin … (delta insulin)” value ([2]; Chronic, 30 mkd, Time -60) was 0 and the “effect on plasma insulin after a glucose challenge” value ([2]; OGTT Day 13, 30 mg/kg acutely PO and chronically in diet, vs. vehicle) was “increased plasma insulin”.
